Laboratory results published in patent US20110311445A1, “DIAGNOSIS AND TREATMENT OF MYELOID AND LYMPHOID CELL CANCERS” (MORPHOTEK, INC., priority 2003, published 2011).

What was measured:
[1] = test system: myeloid and lymphoid cancer cells; experiment: Binding of chlorotoxin and binding-domain peptides to lymphoid cancer cells (FACS, streptavidin-fluorescein); conditions: general statement; FACS on Raji, Daudi, Molt-4 cells (FIG. 1, 2)
Procedure: Raji (Epstein et al. (1966) J. Natl. Cancer Inst. 37, 547-559) and Daudi (Klein et al. (1968) Cancer Res. 28 1300-1310) cells were used either unfixed or fixed with one percent glutaraldehyde. The Raji cell line (ATCC CCL-86) is a B lymphocyte cell line derived from a Burkitt's lymphoma of a person. The Daudi cell line (ATCC CCL-213) is a B lymphoblast cell line derived from person. Cells were incubated with chlorotoxin or the designated binding domain peptide (SEQ ID NO: 8 or 10), washed then incubated with streptavidin-fluorescein (strp-FL). After another wash, cells were analyzed using a FACS analyzer and the percent of positive staining cells determined (FIG. 1). Controls included untreated cells, cells incubated with streptavidin-fluorescein alone and cells incubated with negative peptide.
Molt-4 cells (Minowada et al. (1972) J. Natl. Cancer Inst. 49, 891-895) were used either unfixed or fixed with one percent glutaraldehyde. The Molt-4 cell line is a T lymphoblast cell line derived from a patient in relapse. Cells were incubated with chlorotoxin or the designated binding domain peptide (SEQ ID NO: 8 or 10), washed then incubated with streptavidin-fluorescein (strp-FL). After another wash, cells were analyzed using a FACS analyzer and the percent of positive staining cells determined (FIG. 2). […]

[2] = test system: Daudi cell line; experiment: Cell proliferation / cytotoxicity, CCK-8, chlorotoxin (TM-601) with or without doxorubicin; format: cell-based; conditions: in combination with doxorubicin; FIG. 4
Procedure: (§1) A tissue culture method was optimized to test the effects of chlorotoxin (TM-601) in the presence or absence of doxorubicin on Raji (FIG. 3) and Daudi (FIG. 4) cell lines. Cells were plated on 96-well microtiter tissue culture plates at a density of approximately 1000-2000 cells per well, depending on the specific cell line. Cells were allowed to adhere twenty-four hours in a 37° C., humidified cell culture incubator supplied with five percent carbon dioxide. In order to achieve a dose-response curve for each drug in each cell line, cells were treated with decreasing concentrations doxorubicin for two to five days. Following treatment, the cytotoxic effect of doxorubicin was quantified using the Cell Counting Kit-8 (CCK-8) (Dojindo Inc.) according to the manufacturer's instructions. In brief, following the treatment period with doxorubicin, cells were incubated with CCK-8 reagent and incubated at 37° C. for one to four hours, depending on the specific cell type. After incubation, plates were read on a microplate reader at a wavelength of 490 nm.

[3] = test system: Raji cell line; experiment: as above; format: cell-based; conditions: in combination with doxorubicin; FIG. 3
Procedure: as §1

chlorotoxin
binding to myeloid and lymphoid cancer cells [1]: specifically and selectively bind
effect on Daudi cell proliferation [2]: close-dependent synergistic effects
effect on Raji cell proliferation [3]: close-dependent synergistic effects
